This passage reports IC50 and EC50 results from patent publication US20080090873A1, “Sulfonamide derivatives” (priority 2006, published 2008).

For orientation: IC50 means the concentration that gives 50% inhibition. A low value points to greater potency in that assay. By EC50 is commonly meant the midpoint of the concentration-response curve.

The target in assay [1] is human muscarinic M3 receptor (Homo sapiens, UniProt P20309). Put plainly: Whole cell β-lactamase reporter assay of antagonist activity in CHO cells expressing the hM3 receptor. It is filed as cell-based. The conditions noted are these: NFAT β-lactamase reporter, inhibition of 80 nM carbamyl choline signal, 4 h. As for the experimental part:
Functional Assessment of Antagonist Activity Using a Whole Cell β-Lactamase Reporter Assay in CHO Cells Expressing the hM3 Receptor.
CHO (Chinese Hamster Ovary) cells recombinantly expressing the human muscarinic M3 receptor were transfected with the NFAT_β-Lac_Zeo plasmid. Cells were grown in DMEM with Glutamax-1, supplemented with 25 mM HEPES (Life Technologies 32430-027), containing 10% FCS (Foetal Calf Serum; Sigma F-7524), […] Sodium pyruvate (Sigma S-8636), NEAA (non-Essential Amino Acids; Invitrogen 11140-035) and 200 μg/ml Zeocin (Invitrogen R250-01).
Cells were harvested for assay when they reached 80-90% confluency using enzyme free cell Dissociation Solution (Life technologies 13151-014) incubated with the cells for 5 min at 37° C. in an atmosphere containing 5% CO2. Detached cells were collected in warmed growth media and centrifuged at 2000 rpm for 10 min, washed in PBS (Phosphate Buffered Saline; Life Technologies 14190-094) and centrifuged again as just described. The cells were re-suspended at 2×10^5 cells/ml in growth medium (composition as described above). 20 μl of this cell suspension was added to each well of a 384 well black clear bottomed plate (Greiner Bio One 781091-PFI). The assay buffer used was PBS supplemented with 0.05% Pluronic F-127 (Sigma 9003-11-6) and 2.5% DMSO. Muscarinic M3 receptor signalling was stimulated using 80 nM carbamyl choline (Aldrich N240-9) incubated with the cells for 4 h at 37° C./5% CO2 and monitored at the end of the incubation period using a Tecan SpectraFluor+ plate reader (λ-excitation 405 nm, emission 450 nm and 503 nm). Compounds under test were added to the assay at the beginning of the 4 h incubation period and compound activity measured as the concentration dependent inhibition of the carbamyl choline induced signal. Inhibition curves were plotted and IC50 values generated using a 4-parameter sigmoid fit and converted to Ki values using the Cheng-Prusoff correction and the KD value for carbamyl choline in the assay.
A general note: In a reporter assay the amount or activity of a reporter protein is the signal.

Assay [2] has as its target human adrenergic B2 receptor (Homo sapiens, UniProt P07550). Kind of assay: Whole cell luciferase reporter assay of agonist potency in CHO cells expressing the hB2 receptor. It is filed as cell-based. The conditions noted are these: 4 h incubation, read-out: EC50 - beta2. The protocol: Functional Assessment of Agonist Potency and Efficacy Using a Whole Cell Luciferase Reporter Assay in CHO Cells Expressing the hB2 Receptor.
CHO (Chinese Hamster Ovary) cells recombinantly expressing the human adrenergic B2 receptor and transfected with a luciferase enzyme reporter gene were maintained in growth media composed of F12:DMEM (Sigma D6421) containing 10% Foetal Bovine Serum (FBS: Sigma F03921) 10 μg/ml puromycin (Sigma N277698), 0.5 mg/ml Geneticin G418 (Sigma G7034) and 2 mM L-glutamine (Sigma G7513). The cells were kept in sterile conditions at 37° C., in an atmosphere containing 5% CO2.
hB2 Luciferase Assay Protocol
Cells were harvested for assay when they reached 80-90% confluency using enzyme free cell Dissociation Solution (Life technologies 13151-014) incubated with the cells for 5 min at 37° C. in an atmosphere containing 5% CO2. Detached cells were collected in warmed growth media (composition described above), and re-suspended in assay media (F12:DMEM (Sigma D6421) containing 1% Foetal Bovine Serum (FBS: Sigma F03921), 10 μg/ml puromycin (Sigma N277698), 0.5 mg/ml Geneticin G418 (Sigma G7034) and 2 mM L-glutamine (Sigma G7513)) to give a viable cell concentration of 1×10^6 cells/ml. 10 ul of this suspension was added to each well of a tissue culture treated low volume 384 well plate (Greiner788073) and the plate incubated in an atmosphere containing 5% CO2 at 37° C. for 2 h. Concentration ranges of test compounds were prepared in phosphate Buffered Saline containing 0.05% pluronic-F127 (Sigma P2443) and 2.5% DMSO. […] At the end of the incubation period 4 μl of Steady-Glo reagent (Steady-Glo Luciferase assay system (Promega E2520) was added to each well and the plate read immediately in a Leadseeker Plate reader (Amersham Bioscience) using a 660 nm filter. Concentration effect curves were plotted and EC50 values generated using a 4-parameter sigmoid fit using an in-house data analysis programme. Isoprenaline was run in every assay as a reference standard.

human adrenergic B2 receptor, sequence (P07550 whole entry): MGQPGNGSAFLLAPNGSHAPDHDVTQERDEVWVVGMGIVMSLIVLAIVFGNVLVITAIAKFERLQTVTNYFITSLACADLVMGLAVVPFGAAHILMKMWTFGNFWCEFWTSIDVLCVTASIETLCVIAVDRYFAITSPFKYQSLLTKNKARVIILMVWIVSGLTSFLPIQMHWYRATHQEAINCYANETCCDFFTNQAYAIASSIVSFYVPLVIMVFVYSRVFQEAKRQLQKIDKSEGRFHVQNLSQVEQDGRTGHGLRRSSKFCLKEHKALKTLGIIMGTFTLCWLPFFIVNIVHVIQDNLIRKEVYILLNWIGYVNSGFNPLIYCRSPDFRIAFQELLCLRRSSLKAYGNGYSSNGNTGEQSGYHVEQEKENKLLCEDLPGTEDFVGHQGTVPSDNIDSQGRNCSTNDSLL
human muscarinic M3 receptor, sequence (P20309 whole entry): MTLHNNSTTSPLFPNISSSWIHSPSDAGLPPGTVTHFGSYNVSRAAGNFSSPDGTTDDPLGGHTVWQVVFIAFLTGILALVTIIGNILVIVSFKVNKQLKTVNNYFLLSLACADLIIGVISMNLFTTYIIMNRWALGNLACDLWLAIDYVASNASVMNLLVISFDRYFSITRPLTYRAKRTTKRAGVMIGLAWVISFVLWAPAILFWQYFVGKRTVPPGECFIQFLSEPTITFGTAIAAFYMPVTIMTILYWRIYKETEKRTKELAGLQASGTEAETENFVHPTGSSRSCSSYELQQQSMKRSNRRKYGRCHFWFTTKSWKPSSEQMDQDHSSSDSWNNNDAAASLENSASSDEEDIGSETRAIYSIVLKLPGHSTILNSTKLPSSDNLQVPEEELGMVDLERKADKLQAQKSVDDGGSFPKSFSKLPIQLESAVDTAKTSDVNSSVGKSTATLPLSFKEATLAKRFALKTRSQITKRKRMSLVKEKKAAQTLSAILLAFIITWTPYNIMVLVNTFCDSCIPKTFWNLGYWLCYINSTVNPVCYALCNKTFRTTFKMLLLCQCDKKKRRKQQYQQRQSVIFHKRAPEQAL

Regarding `CS(=O)(=O)Nc1cc([C@@H](O)CNCCCCCCCCCN2CCC(OC(=O)Nc3ccccc3-c3ccc(O)c(F)c3)CC2)ccc1O` [Example 1, 1-(9-{[(2R)-2-Hydroxy-2-{4-hydroxy-3-[(methylsulfonyl)amino]phenyl}ethyl]amino}nonyl)piperidin-4-yl(3′-fluoro-4′-hydroxybiphenyl-2-yl)carbamate], the IC50 in assay [1] turned out to be 2.93 nM. In addition, in assay [2], the EC50 amounted to 1.01 nM.
Take `CS(=O)(=O)Nc1cc([C@@H](O)CNCCCCCCCCCN2CCC(OC(=O)Nc3ccc(F)cc3-c3ccc(O)c(Cl)c3)CC2)ccc1O` [Example 3, 1-(9-{[(2R)-2-hydroxy-2-{4-hydroxy-3-[(methylsulfonyl)amino]phenyl}ethyl]amino}nonyl)piperidin-4-yl(3′-chloro-5-fluoro-4′-hydroxybiphenyl-2-yl)carbamate]: in assay [1], the half-inhibitory concentration (IC50) is 1.07 nM. In assay [2], the EC50 turned out to be 0.252 nM.
For `CS(=O)(=O)Nc1cc([C@@H](O)CNCCCCCCCCCN2CCC(OC(=O)Nc3ccccc3-c3ccc(O)c(Cl)c3)CC2)ccc1O` [Example 2, 1-(9-{[(2R)-2-Hydroxy-2-{4-hydroxy-3-[(methylsulfonyl)amino]phenyl}ethyl]amino}nonyl)piperidin-4-yl(3′-chloro-4′-hydroxybiphenyl-2-yl)carbamate] the same measures were 0.725 nM and 0.133 nM.
